Results on two molecules are retold here after ChEMBL document CHEMBL4813981, “Synthesis and in vitro antibacterial activity of new aminothiazole-oximepiperidone cephalosporins” (2021).

≈ marks a conversion by molar mass, not a printed value.

The subject of test [1] is Escherichia coli. The test is described as follows: Ratio of MBC to MIC for ESBLs positive Carbapenem-sensitive Escherichia coli 17-18 assessed as reduction in bacterial growth. The test is classed as functional.
Test [2] has as its system Klebsiella pneumoniae. Description: Antibacterial activity against ESBLs negative Carbapenem-sensitive Klebsiella pneumoniae 17-19 assessed as reduction in bacterial growth in the presence of Avibactam. The test is classed as functional.
The test system of test [3] is Klebsiella pneumoniae. Description: Ratio of MBC to MIC for ESBLs positive Carbapenem-sensitive Klebsiella pneumoniae 17-2 assessed as reduction in bacterial growth in the presence of Avibactam. The format is functional.
Test [4] has as its system Escherichia coli. The test is described as follows: Ratio of MBC to MIC for ESBLs positive carbapenem-negative Escherichia coli 17-18 assessed as reduction in bacterial growth in the presence of Avibactam. The test is classed as functional.
The test system of test [5] is Enterobacter cloacae. The test is described as follows: Ratio of MBC to MIC for Enterobacter cloacae 17-10 assessed as reduction in bacterial growth in the presence of Avibactam. The test is classed as functional.
The test system of test [6] is Escherichia coli. The test is described as follows: Antibacterial activity against ESBLs positive Carbapenem-sensitive Escherichia coli 17-5 assessed as reduction in bacterial growth in the presence of Avibactam. The test is classed as functional.
Test [7] deals with Enterobacter cloacae. The test is described as follows: Antibacterial activity against Enterobacter cloacae 17-8 assessed as reduction in bacterial growth.
Test [8] deals with Enterobacter cloacae. The test is described as follows: Ratio of MBC to MIC for Enterobacter cloacae 17-10 assessed as reduction in bacterial growth. The test is classed as functional.
For test [9], the system named is Escherichia coli. The test is described as follows: Antibacterial activity against ESBLs positive Carbapenem-sensitive Escherichia coli 17-3 assessed as reduction in bacterial growth in the presence of Avibactam. The format is functional.
The test system of test [10] is Enterobacter cloacae. Description: Ratio of MBC to MIC for Enterobacter cloacae 17-8 assessed as reduction in bacterial growth. The format is functional.
Test [11] concerns Klebsiella pneumoniae. The test is described as follows: Ratio of MBC to MIC for ESBLs negative Carbapenem-sensitive Klebsiella pneumoniae 17-17 assessed as reduction in bacterial growth in the presence of Avibactam. The format is functional.
In test [12] the test system is Escherichia coli. The test is described as follows: Ratio of MBC to MIC for ESBLs negative carbapenem-negative Escherichia coli 17-9 assessed as reduction in bacterial growth in the presence of Avibactam. The test is classed as functional.
In test [13] the test system is Klebsiella pneumoniae. The test is described as follows: Ratio of MBC to MIC for Klebsiella pneumoniae ATCC BAA-1705 assessed as reduction in bacterial growth in the presence of Avibactam. The format is functional.
Test [14] relates to Escherichia coli. The test is described as follows: Antibacterial activity against Escherichia coli 15-3 overexpressing extended spectrum beta-lactamases assessed as reduction in bacterial growth in the presence of Avibactam. The test is classed as functional.
The subject of test [15] is Pseudomonas aeruginosa. The test is described as follows: Bactericidal activity against Carbapenem- resistant Pseudomonas aeruginosa 17-1 assessed as reduction in bacterial growth. The test is classed as functional.
The subject of test [16] is Pseudomonas aeruginosa. Description: Ratio of MBC to MIC for carbapenem-sensitive Pseudomonas aeruginosa 17-7 assessed as reduction in bacterial growth in the presence of Avibactam. The test is classed as functional.
In test [17] the test system is Klebsiella pneumoniae. The test is described as follows: Antibacterial activity against ESBLs positive Carbapenem-sensitive Klebsiella pneumoniae 17-2 assessed as reduction in bacterial growth in the presence of Avibactam. The format is functional.
For test [18], the system named is Escherichia coli. The test is described as follows: Antibacterial activity against ESBLs positive Carbapenem-sensitive Escherichia coli 17-14 assessed as reduction in bacterial growth in the presence of Avibactam. The test is classed as functional.
Test [19] concerns Escherichia coli. The test is described as follows: Antibacterial activity against ESBLs negative Carbapenem-sensitive Escherichia coli 17-19 assessed as reduction in bacterial growth in the presence of Avibactam. The test is classed as functional.
For test [20], the system named is Escherichia coli. Description: Ratio of MBC to MIC for Escherichia coli ATCC 25922 assessed as reduction in bacterial growth in the presence of Avibactam. The test is classed as functional.
For test [21], the system named is Enterobacter cloacae. Description: Antibacterial activity against Enterobacter cloacae 17-6 assessed as reduction in bacterial growth in the presence of Avibactam. The format is functional.
For test [22], the system named is Enterobacter cloacae. Description: Antibacterial activity against Enterobacter cloacae 17-4 assessed as reduction in bacterial growth in the presence of Avibactam. The format is functional.
The test system of test [23] is Pseudomonas aeruginosa. Description: Ratio of MBC to MIC for carbapenem-sensitive Pseudomonas aeruginosa 17-9 assessed as reduction in bacterial growth. The format is functional.
Test [24] concerns Enterobacter cloacae. Description: Ratio of MBC to MIC for Enterobacter cloacae 17-3 assessed as reduction in bacterial growth in the presence of Avibactam. The test is classed as functional.
The test system of test [25] is Klebsiella pneumoniae. Description: Ratio of MBC to MIC for Klebsiella pneumoniae ATCC BAA-1705 assessed as reduction in bacterial growth. The format is functional.
For test [26], the system named is Escherichia coli. Description: Ratio of MBC to MIC for ESBLs negative Carbapenem-sensitive Escherichia coli 17-9 assessed as reduction in bacterial growth. The test is classed as functional.
Test [27] deals with Klebsiella pneumoniae. Description: Ratio of MBC to MIC for Carbapenem-resistant Klebsiella pneumoniae KR 15-8 assessed as reduction in bacterial growth in the presence of Avibactam. The test is classed as functional.
Test [28] deals with Klebsiella pneumoniae. Description: Ratio of MBC to MIC for ESBLs positive Carbapenem-sensitive Klebsiella pneumoniae 17-2 assessed as reduction in bacterial growth. The format is functional.
Test [29] concerns Enterobacter cloacae. Description: Antibacterial activity against Enterobacter cloacae 17-3 assessed as reduction in bacterial growth.
In test [30] the test system is Escherichia coli. The test is described as follows: Ratio of MBC to MIC for ESBLs positive carbapenem-negative Escherichia coli 17-3 assessed as reduction in bacterial growth in the presence of Avibactam. The test is classed as functional.
Test [31] deals with Klebsiella pneumoniae. Description: Ratio of MBC to MIC for ESBLs positive Carbapenem-sensitive Klebsiella pneumoniae 17-12 assessed as reduction in bacterial growth. The test is classed as functional.
Test [32] concerns Pseudomonas aeruginosa. Description: Ratio of MBC to MIC for carbapenem-sensitive Pseudomonas aeruginosa 17-9 assessed as reduction in bacterial growth in the presence of Avibactam. The format is functional.
Test [33] has as its system Klebsiella pneumoniae. Description: Antibacterial activity against ESBLs positive Carbapenem-sensitive Klebsiella pneumoniae 17-11 assessed as reduction in bacterial growth in the presence of Avibactam. The format is functional.
Test [34] relates to Klebsiella aerogenes. Description: Antibacterial activity against Enterobacter aerogenes 15-4 assessed as reduction in bacterial growth in the presence of Avibactam. The test is classed as functional.
The test system of test [35] is Klebsiella aerogenes. Description: Ratio of MBC to MIC for Enterobacter aerogenes 15-4 assessed as reduction in bacterial growth. The format is functional.
The subject of test [36] is Klebsiella aerogenes. The test is described as follows: Ratio of MBC to MIC for Enterobacter aerogenes 17-1 assessed as reduction in bacterial growth in the presence of Avibactam. The format is functional.
Test [37] has as its system Escherichia coli. Description: Bactericidal activity against ESBLs positive Carbapenem-sensitive Escherichia coli 17-10 assessed as reduction in bacterial growth. The format is functional.
For test [38], the system named is Klebsiella aerogenes. Description: Antibacterial activity against Enterobacter aerogenes 17-4 assessed as reduction in bacterial growth.
Test [39] concerns Klebsiella aerogenes. Description: Bactericidal activity against Enterobacter aerogenes 17-3 assessed as reduction in bacterial growth. The test is classed as functional.
The subject of test [40] is Acinetobacter baumannii. Description: Bactericidal activity against Carbapenem- resistant Acinetobacter baumannii 17-11 assessed as reduction in bacterial growth. The format is functional.
Test [41] concerns Klebsiella pneumoniae. The test is described as follows: Antibacterial activity against ESBLs negative Carbapenem-sensitive Klebsiella pneumoniae 17-17 assessed as reduction in bacterial growth.
Test [42] has as its system Pseudomonas aeruginosa. Description: Antibacterial activity against Carbapenem- resistant Pseudomonas aeruginosa 17-1 assessed as reduction in bacterial growth.

What is called MIC is the lowest concentration found to suppress growth. For orientation: MBC means the smallest concentration meeting the test's criterion for killing. As for `Nc1nc(/C(=N/OCc2cc(=O)c(O)cn2O)C(=O)N[C@@H]2C(=O)N3C(C(=O)O)=CCS[C@H]23)cs1`, the Ratio in test [1] was 4; in test [3], 1; in test [4], 2; in [5], 2; in test [8], over 8; in [10], 1. The Ratio came to 8 in test [11]; 4 in test [12]; 1 in [13]; 1 in test [16]; 2 in [20]; 4 in test [23]. The Ratio in test [24] was 4; in test [25] it was over 1; in test [26], 4; in [27] it was 4; in [28], 1; in test [30] it was 2. In addition, the Ratio came to 2 in test [31], 2 in test [32], 1 in test [35] and 2 in [36]. Further, the minimum inhibitory concentration (MIC) in test [2] is at most 0.03 µg/mL; in test [6], 1 µg/mL; in [7], 16 µg/mL (≈ 31.5 µM); in [9], 0.125 µg/mL; in test [14] it was 1 µg/mL; in test [17], 0.125 µg/mL. For the same molecule, the MIC in test [18] was 0.25 µg/mL; in test [19], 0.5 µg/mL; in [21], 1 µg/mL; in test [22] it was 0.5 µg/mL; in test [29], 64 µg/mL (≈ 126 µM); in test [33], 4 µg/mL. In test [34], the minimum inhibitory concentration (MIC) amounted to 0.5 µg/mL. In test [15], the MBC came out at 64 µg/mL (≈ 126 µM).

Regarding `CC(C)(O/N=C(\C(=O)N[C@@H]1C(=O)N2C(C(=O)[O-])=C(C[n+]3ccccc3)CS[C@H]12)c1csc(N)n1)C(=O)O` [CEFTAZIDIME], the figures for the MBC in [37], in test [39] and in test [40] were 16 µg/mL (≈ 29.3 µM), 1 µg/mL (≈ 1.83 µM) and over 64 µg/mL, respectively. Besides, the values for the minimum inhibitory concentration (MIC) in test [38], in test [41] and in test [42] were 8 µg/mL (≈ 14.6 µM), 0.125 µg/mL (≈ 0.229 µM) and 32 µg/mL (≈ 58.5 µM), respectively.
